Source: US20240374626A1, “METHODS OF ENHANCING MILK PRODUCTION IN LACTATING MAMMALIAN SUBJECTS” (priority 2023, published 2024)

Experiments:
Csn2 = assay: Contralateral intraductal injection: Csn2 expression in MGs by RT-qPCR; assay type: in vivo, mouse
Experimental: Nulliparous analysis was performed using adult (10-12-week-old) female mice. For timed pregnancies and lactation analysis, CD-1 pregnant adult females were obtained from Charles Rivers. Embryos were examined at the time of mammary gland harvesting to confirm pregnancy state. […] Plugged mice were considered to be PD0.5 on the day of the observed plug. All females used in this study were age matched.
Mice were anesthetized with isoflurane (VetOne, 501017) Prior to intraductal injections, hair was removed from around the nipples using Nair hair remover. Injections into the duct of the nipple were performed with 33 G needles (Hamilton, 7803-05) and a volume of 40 μl per gland. Right inguinal, abdominal and thoracic glands were injected with doxorubicin (1.5 μg per gland, Cayman Chemical, 15007), nucleosides (40 μl per gland, Millipore-Sigma, ES-008-D) or Mk-1775 (50 μg per gland, Cayman Chemical, 21266), and left glands were injected with PBS or DMSO (Thermo Scientific, BP231) diluted in PBS.
For RNA isolation from FACS purified populations, mammary gland cell suspensions were blocked using Mouse BD Fc Block™ (BD Biosciences) for 10 min. Cells were subsequently resuspended on 1×PBS at a density of 10^7 cells/ml and stained with the following antibodies for 30 min on ice: anti-CD24 PE (Stem Cell Technologies, 60099PE.1), anti-CD29 PE-Cy7 (BioLegend, 102222), anti-CD45-APC (BioLegend,105826), Ter119-APC (BD Biosciences, 561033), CD31-ACP (BD Biosciences, 551262). Propidium iodide at a final concentration of 0.5 μg/ml was used for the discrimination of dead cells. Stromal, basal and luminal mammary populations were sorted using a BD FACS Aria II Cell Sorter. […] Total RNA quality was analyzed by agarose gel electrophoresis and quantified using an ND-1000 spectrophotometer (NanoDrop). cDNA was prepared from 500-1000 ng of total RNA using iScript cDNA synthesis kit (Bio-Rad, 1708841). Quantitative RT-qPCR was performed in triplicates using SsoAdvanced Universal SYBR Green Supermix, (Bio-Rad, 1725272). […]

HC11 cells = assay: Visualization of FACS-purified HC11 subpopulations sorted on DNA content (nuclei number); assay type: cell-based, mouse; conditions: HC11, doxorubicin 50 nM, FACS-purified population
Experimental: […] Drugs were maintained through the differentiation process and added with every change of media.
Mammary gland CK8+ epithelial cells or HC11 were sorted based on DNA content using BD FACS Aria II Cell Sorter. After sorting, cells were stained in suspension using Phalloidin-iFluor 488 Reagent (Abcam, ab176753) for 30 min at room temperature in darkness. Cells were spined down onto microscopy slides (Fisher, 12-550-15) using Cytospin 2 (Shandon, 599X52) at 500 rpm for 3 min. Cells were mounted using fluoromount-G (Southern Biotech, 0100-01) and visualized using Zeiss Axio Imager Microscope.

`C=CCn1c(=O)c2cnc(Nc3ccc(N4CCN(C)CC4)cc3)nc2n1-c1cccc(C(C)(C)O)n1` [Mk-1775] was tested, and the “Csn2 expression, RT-qPCR” value (Csn2; Mk-1775 IDI at PD16.5 vs contralateral DMSO, LD2 or LD5 MGs) was “decrease”.

For `COc1cccc2c1C(=O)c1c(O)c3c(c(O)c1C2=O)C[C@@](O)(C(=O)CO)C[C@@H]3O[C@H]1C[C@H](N)[C@H](O)[C@H](C)O1` [doxorubicin], the “nuclei number of polyploid cells generated” value (HC11 cells) was “generated both mono- and binucleated polyploid cells” and the “milk production as Csn2 expression, RT-qPCR” value (Csn2; doxorubicin IDI at PD12.5 vs contralateral DMSO, PD17.5 MGs) was “increase”.
